Reference: ChEMBL document CHEMBL5335815, “The Greater Celandine: Identification and Characterization of an Antimicrobial Peptide from Chelidonium majus” (J Nat Prod, 2024)
Calls of active or inactive are those of the source. The calls are words filed in the database; no cut-off is given here. Bridge positions count the residues as written; N and C are the ends. Peptide text beside a SMILES is read from it.

How the values were obtained:
[1] = Proteolytic stability assessed as proteinase K (unknown origin) mediated compound degradation incubated for 10 mins by LC-MS analysis; format: ADME; conditions: human
[2] = Proteolytic stability assessed as proteinase K (unknown origin)-mediated compound degradation in presence of reduced and alkylated cysteines measured after 10 mins by LC-MS analysis; format: ADME
[3] = test system: Proteinase K (Engyodontium album); assay: Inhibition of proteinase K (Engyodontium album)
Escherichia coli = assay: Induction of BasS protein expression in Escherichia coli assessed as fold increase at 5 microg/ml; format: functional; conditions: dose 5.0 µg/ml

SMILES	Stability [1]	Stability [2]	inhibition [3]	fold change (FC) (Escherichia coli)
CC[C@H](C)[C@@H]1NC(=O)[C@H](Cc2ccccc2)NC(=O)[C@H](Cc2ccccc2)NC(=O)[C@H](CCCNC(=N)N)NC(=O)[C@H](CCCNC(=N)N)NC(=O)[C@H](CCCCN)NC(=O)[C@H](CCCCN)NC(=O)[C@H](CC(=O)O)NC(=O)[C@H](C(C)C)NC(=O)[C@H](CO)NC(=O)[C@H](CCCCN)NC(=O)[C@@H]2CSSC[C@@H](C(=O)N[C@@H](CC(N)=O)C(=O)O)NC(=O)[C@@H]3CSSC[C@H](N)C(=O)NCC(=O)N[C@@H](CSSC[C@H](NC(=O)[C@H]([C@@H](C)O)NC(=O)[C@@H]4CCCN4C1=O)C(=O)N[C@@H](CC(C)C)C(=O)N[C@@H](CCCNC(=N)N)C(=O)N[C@@H](CO)C(=O)N3)C(=O)N[C@@H](Cc1ccc(O)cc1)C(=O)N2 (H-CGCYCKSVDKKRRFFIPTCLRSCCN-OH; disulfide 1-23, 3-19, 5-24)	Stable	Unstable	inactive	–
CC[C@H](C)[C@H](NC(=O)[C@H](Cc1ccccc1)NC(=O)[C@H](Cc1ccccc1)NC(=O)[C@H](CCCNC(=N)N)NC(=O)[C@H](CCCNC(=N)N)NC(=O)[C@H](CCCCN)NC(=O)[C@H](CCCCN)NC(=O)[C@H](CC(=O)O)NC(=O)[C@@H](NC(=O)[C@H](CO)NC(=O)[C@H](CCCCN)NC(=O)[C@H](CS)NC(=O)[C@H](Cc1ccc(O)cc1)NC(=O)[C@H](CS)NC(=O)CNC(=O)[C@@H](N)CS)C(C)C)C(=O)N1CCC[C@H]1C(=O)N[C@H](C(=O)N[C@@H](CS)C(=O)N[C@@H](CC(C)C)C(=O)N[C@@H](CCCNC(=N)N)C(=O)N[C@@H](CO)C(=O)N[C@@H](CS)C(=O)N[C@@H](CS)C(=O)N[C@@H](CC(N)=O)C(=O)O)[C@@H](C)O (H-CGCYCKSVDKKRRFFIPTCLRSCCN-OH)	–	–	–	83.8
